Data on 6 compounds can be found in the supplement of paper PMC13380429.

Molecules are shown by their SMILES.

Settings in all cases: 72 h
The test system of assay [1] is Calu-3. As to the kind of experiment: drug sensitivity score (DSS) for viability; higher = more toxic; extreme values may be limits of the assay.
Assay [2] has as its system Caco-2. The assay is described as above.
The subject of assay [3] is HepG2. Described as above.
The subject of assay [4] is Calu-3. The assay can be described thus: relative viability EC50 (midpoint between 100% and the lowest measured viability); higher = less toxic.
The test system of assay [5] is Caco-2. The description is as above.
The subject of assay [6] is HepG2. The description is as above.
Assay [7] has as its system Calu-3. The assay can be described thus: cell viability relative to DMSO; higher = less toxic.
Assay [8] relates to Caco-2. Described as above.
The subject of assay [9] is HepG2. The assay is described as above.
Assay [10] deals with U2OS. The assay can be described thus: drug sensitivity score (DSS) for viability; higher = more toxic; extreme values may be limits of the assay.
In assay [11] the test system is Vero E6. The description is as above.
In assay [12] the test system is U2OS. The assay can be described thus: cell viability relative to DMSO; higher = less toxic.
For assay [13], the system named is Vero E6. The description is as above.
The subject of assay [14] is U2OS. The assay can be described thus: relative viability EC50 (midpoint between 100% and the lowest measured viability); higher = less toxic.

Take `Cc1nc(N)sc1CCN` [amthamine]: the drug sensitivity score in assay [1], in [2] and in assay [3] was 0 throughout. In addition, the “relative viability EC50” value in [4], in [5] and in assay [6] was > 10 µM in each case. Moreover, the cell viability (in general, a read-out of living cells in per cent, often relative to untreated cells) in [7] (1 nM) is 98.2%; in [7] (10 nM), 97.3%; in assay [7] (100 nM) it was 105%; in assay [7] (1000 nM) it was 109%; in assay [7] (10000 nM), 109%; in assay [8] (1 nM) it was 96.3%. For the same compound, the cell viability came to 95.3% in assay [8] (10 nM); 87.4% in assay [8] (100 nM); 92.4% in assay [8] (1000 nM); 96.5% in assay [8] (10000 nM); 104% in [9] (1 nM); 105% in assay [9] (10 nM). The cell viability in [9] (100 nM) came to 106%; in assay [9] (1000 nM), 122%; in assay [9] (10000 nM) it was 99.4%.
On to `O=C(CCCl)NCc1ccccc1` [beclamide], for which the drug sensitivity score in assay [10], in assay [11], in assay [1] and in [3] was 0 in each case.
As to `Cc1c(N)nc([C@H](CC(N)=O)NC[C@H](N)C(N)=O)nc1C(=O)N[C@H](C(=O)N[C@H](C)[C@@H](O)[C@H](C)C(=O)N[C@H](C(=O)NCCc1nc(-c2nc(C(=O)NCCCNCCCCN)cs2)cs1)[C@@H](C)O)[C@@H](O[C@@H]1O[C@@H](CO)[C@@H](O)[C@H](O)[C@@H]1O[C@@H]1O[C@H](CO)[C@@H](O)[C@H](OC(N)=O)[C@@H]1O)c1cnc[nH]1` [bleomycetin], the drug sensitivity score in assay [10] came to 3.4; in assay [11], 3.9; in assay [1], 5.2; in assay [2], 1.7; in assay [3], 4. Also, in [5], the “relative viability EC50” value was > 10 µM. In addition, the cell viability worked out at 101% in assay [12] (1 nM); 97.7% in assay [12] (10 nM); 99.8% in [12] (100 nM); 83.3% in [12] (1000 nM); 68.7% in assay [12] (10000 nM); 106% in [13] (1 nM). Moreover, the cell viability in [13] (10 nM) came out at 103%; in assay [13] (100 nM), 106%; in [13] (1000 nM) it was 82.4%; in assay [13] (10000 nM), 64.2%; in assay [7] (1 nM), 94%; in assay [7] (10 nM), 95.4%. For the same compound, the cell viability in assay [7] (100 nM) was 93.1%; in [7] (1000 nM), 76.5%; in [7] (10000 nM), 51.3%; in [8] (1 nM), 106%; in assay [8] (10 nM) it was 102%; in [8] (100 nM), 100%. The cell viability in assay [8] (1000 nM) was 90.9%; in assay [8] (10000 nM), 78.7%; in assay [9] (1 nM) it was 99.4%; in assay [9] (10 nM) it was 104%; in assay [9] (100 nM) it was 98.1%; in assay [9] (1000 nM), 82.7%. For the same compound, the cell viability in [9] (10000 nM) was found to be 59.9%.
Turning to `O=C(CCCN1CCC(O)(c2ccc(Br)cc2)CC1)c1ccc(F)cc1` [bromperidol], the drug sensitivity score in assay [10] turned out to be 0; in assay [11] it was 0; in assay [1], 0; in [3], 0.8.
Turning to `Cc1ccc(S(=O)(=O)NCl)cc1` [chloramine-T], the drug sensitivity score in [10], in assay [1], in [2] and in [3] was 0 in each case. For the same compound, the “relative viability EC50” value in [14], in assay [4], in assay [5] and in assay [6] was > 10 µM in each case. The cell viability in [12] (1 nM) turned out to be 105%; in assay [12] (10 nM) it was 97.7%; in assay [12] (100 nM), 105%; in assay [12] (1000 nM), 99.1%; in [12] (10000 nM) it was 99.4%; in [7] (1 nM) it was 102%. For the same compound, the cell viability in assay [7] (10 nM) was determined as 107%; in assay [7] (100 nM), 92.2%; in assay [7] (1000 nM), 101%; in [7] (10000 nM) it was 92.6%; in [8] (1 nM), 99.5%; in assay [8] (10 nM), 104%. In addition, the cell viability in assay [8] (100 nM) stood at 92.2%; in assay [8] (1000 nM), 101%; in assay [8] (10000 nM), 99.2%; in assay [9] (1 nM), 101%; in [9] (10 nM), 98.5%; in assay [9] (100 nM), 104%. The cell viability in [9] (1000 nM) and in assay [9] (10000 nM) was 102% throughout.
Take `O=c1ccc2ccccc2o1` [coumarin]: the drug sensitivity score in [10], in assay [1], in [2] and in [3] was 0 each time. The “relative viability EC50” value in assay [14], in assay [4], in assay [5] and in [6] was > 10 µM each time. The cell viability in assay [12] (1 nM) was 100%; in assay [12] (10 nM), 98.1%; in assay [12] (100 nM), 96.1%; in assay [12] (1000 nM) it was 99.1%; in assay [12] (10000 nM), 98.1%; in assay [7] (1 nM), 97.7%. Moreover, the cell viability in [7] (10 nM) is 90.9%; in assay [7] (100 nM), 95.6%; in assay [7] (1000 nM) it was 105%; in assay [7] (10000 nM) it was 88.6%; in assay [8] (1 nM), 96.5%; in assay [8] (10 nM) it was 97.6%. Moreover, the cell viability was found to be 99.2% in [8] (100 nM); 95.9% in [8] (1000 nM); 95.5% in assay [8] (10000 nM); 91.8% in assay [9] (1 nM); 107% in assay [9] (10 nM); 106% in assay [9] (100 nM). Besides, the cell viability in assay [9] (1000 nM) was found to be 96.7%; in assay [9] (10000 nM), 111%.
